# Laboratory results from ChEMBL document CHEMBL1124960, “Histamine H3 ligands: just pharmacological tools or potential therapeutic agents?” (J Med Chem, 1990).
# Key:
# [1] = biological target: T1, Histamine H3 receptor (Rattus norvegicus, UniProt Q9QYN8); experiment: Evaluated for antagonist activity against histamine H3 receptor and is represented as -log Ki.; type: functional
# [2] = biological target: Histamine H1 receptor (Cavia porcellus) (UniProt P31389); experiment: Evaluated for antagonist activity against histamine H1 receptor and represented as KB; type: functional
# Sequence of Histamine H1 receptor (Cavia porcellus) (P31389 whole entry): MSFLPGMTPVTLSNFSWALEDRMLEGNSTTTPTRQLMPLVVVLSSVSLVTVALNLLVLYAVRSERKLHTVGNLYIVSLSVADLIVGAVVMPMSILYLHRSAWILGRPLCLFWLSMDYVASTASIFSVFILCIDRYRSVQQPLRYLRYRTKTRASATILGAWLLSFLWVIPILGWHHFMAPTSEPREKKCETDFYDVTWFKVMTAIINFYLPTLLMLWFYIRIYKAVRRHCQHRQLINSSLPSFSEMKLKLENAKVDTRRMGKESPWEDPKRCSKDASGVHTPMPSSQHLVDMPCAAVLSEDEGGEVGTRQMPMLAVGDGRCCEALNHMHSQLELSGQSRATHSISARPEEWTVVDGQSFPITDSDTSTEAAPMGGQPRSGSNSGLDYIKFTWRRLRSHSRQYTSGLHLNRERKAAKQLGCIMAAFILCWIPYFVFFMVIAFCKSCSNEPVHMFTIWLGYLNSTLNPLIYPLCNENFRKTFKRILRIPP
# [3] = biological target: Histamine H3 receptor (Rattus norvegicus) (UniProt Q9QYN8); experiment: Evaluated for antagonist activity against histamine H3 receptor and represented as KB; type: functional
# Sequence of Histamine H3 receptor (Rattus norvegicus) (Q9QYN8 whole entry): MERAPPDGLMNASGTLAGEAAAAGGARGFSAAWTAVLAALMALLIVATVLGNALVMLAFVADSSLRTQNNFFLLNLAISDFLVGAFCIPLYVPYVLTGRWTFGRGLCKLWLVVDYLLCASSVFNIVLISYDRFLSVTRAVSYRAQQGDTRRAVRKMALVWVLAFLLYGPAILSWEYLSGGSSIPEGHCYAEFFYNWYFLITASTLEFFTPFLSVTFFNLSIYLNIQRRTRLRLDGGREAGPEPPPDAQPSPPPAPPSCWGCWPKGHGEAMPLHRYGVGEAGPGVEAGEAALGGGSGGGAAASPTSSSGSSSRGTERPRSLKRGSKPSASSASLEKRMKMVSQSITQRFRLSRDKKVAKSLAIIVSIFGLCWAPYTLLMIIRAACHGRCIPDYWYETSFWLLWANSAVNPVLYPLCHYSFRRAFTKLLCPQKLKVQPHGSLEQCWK
# [4] = biological target: Histamine H2 receptor (Cavia porcellus) (UniProt P47747); experiment: Evaluated for activity at Histamine H2 receptor in guinea pig ileum; type: tissue-based
# Sequence of Histamine H2 receptor (Cavia porcellus) (P47747 whole entry): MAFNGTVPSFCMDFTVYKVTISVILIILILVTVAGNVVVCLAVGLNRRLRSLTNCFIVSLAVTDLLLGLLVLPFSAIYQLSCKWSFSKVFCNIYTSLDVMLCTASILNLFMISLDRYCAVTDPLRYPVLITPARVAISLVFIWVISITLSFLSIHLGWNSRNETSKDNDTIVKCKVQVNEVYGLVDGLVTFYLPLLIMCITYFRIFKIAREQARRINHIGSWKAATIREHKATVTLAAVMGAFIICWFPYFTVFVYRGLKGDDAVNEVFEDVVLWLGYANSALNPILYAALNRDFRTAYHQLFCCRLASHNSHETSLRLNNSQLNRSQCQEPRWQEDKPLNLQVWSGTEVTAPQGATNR
# [5] = biological target: Histamine H1 receptor (Cavia porcellus) (UniProt P31389); experiment: Evaluated for activity at Histamine H1 receptor in guinea pig ileum; type: tissue-based
# [6] = species: Rattus norvegicus; experiment: Evaluated for inhibition of [3H]histamine release from preloaded slices and is represented as pD2.; type: functional
# [7] = species: Rattus norvegicus; experiment: Relative inhibition of [3H]histamine release from pre-loaded slices of rat cerebral cortex; type: functional
# [8] = biological target: Histamine H2 receptor (Cavia porcellus) (UniProt P47747); experiment: Evaluated for antagonist activity against histamine H2 receptor and represented as KB.; type: functional
# [9] = biological target: Histamine H3 receptor (Rattus norvegicus) (UniProt Q9QYN8); experiment: Evaluated for antagonist activity against histamine H3 receptor and represented as KB.; type: functional
# [10] = biological target: Histamine H2 receptor (Cavia porcellus) (UniProt P47747); experiment: Evaluated for activity against histamine H2 receptor in guinea pig gastric secretion and represented as alpha; type: tissue-based; conditions: Stomach
# [11] = biological target: Histamine H1 receptor (Cavia porcellus) (UniProt P31389); experiment: Evaluated for their activity at histamine H1 receptor in guinea pig ileum.; type: tissue-based
# [12] = species: Rattus norvegicus; experiment: Evaluated for [3H]HA release at a frequency 33.3 Hz for 2 min at a concentration 10 E -5M.; type: functional
# [13] = species: Rattus norvegicus; experiment: Evaluated for [3H]-HA release at a frequency 33.3 Hz for 2 min at a concentration 10 E -6M.; type: functional
# [14] = species: Rattus norvegicus; experiment: Evaluated for [3H]-HA release at a frequency 10 Hz for 2 min at a concentration 10 E -5M; type: functional
# [15] = species: Rattus norvegicus; experiment: Evaluated for [3H]HA release at a frequency 10 Hz for 2 min at a concentration 10 E -6M; type: functional
# [16] = species: Rattus norvegicus; experiment: Evaluated for [3H]HA release at a frequency 10 Hz for 2 min at a concentration 10 E -7M; type: functional
# [17] = species: Rattus norvegicus; experiment: Evaluated for [3H]HA release at a frequency 2 Hz for 2.5 min at a concentration 10 E -6M; type: functional
# [18] = species: Rattus norvegicus; experiment: Evaluated for [3H]HA release at a frequency 20 Hz for 2 min at a concentration 10 E -5M; type: functional
# [19] = species: Rattus norvegicus; experiment: Evaluated for [3H]HA release at a frequency 20 Hz for 2 min at a concentration 10 E -6M; type: functional
# [20] = species: Rattus norvegicus; experiment: Evaluated for [3H]HA release at a frequency 20 Hz for 2 min at a concentration 10 E -7M; type: functional
# [21] = biological target: Histamine H2 receptor (Cavia porcellus) (UniProt P47747); experiment: Evaluated for activity against histamine H2 receptor in guinea pig gastric secretion and represented as intrinsic activity; conditions: Stomach
# [22] = biological target: T1, Histamine H3 receptor; experiment: Evaluated for antagonist activity against Histamine H3 receptor and represented as KB.; type: functional
# [23] = species: Rattus norvegicus; experiment: Histamine level after treatment was determined in adbominal skin.; type: functional
# [24] = species: Rattus norvegicus; experiment: Histamine level after treatment was determined in cerebral cortex; type: functional
# [25] = species: Rattus norvegicus; experiment: Histamine level after treatment was determined in colon.; type: functional
# [26] = species: Rattus norvegicus; experiment: Histamine level after treatment was determined in hypothalamus.; type: functional
# [27] = species: Rattus norvegicus; experiment: Histamine level after treatment was determined in spleen; type: functional
# [28] = species: Rattus norvegicus; experiment: Histamine level after treatment was determined for both agents (R-alpha-methylhistamine, thioperamide) in; type: functional
# [29] = species: Rattus norvegicus; experiment: Histamine level after treatment was determined for both agents (R-alpha-methylhistamine, thioperamide) in adbominal skin.; type: functional
# [30] = species: Rattus norvegicus; experiment: Histamine level after treatment was determined for both agents (R-alpha-methylhistamine, thioperamide) in cerebral cortex; type: functional
# [31] = species: Rattus norvegicus; experiment: Histamine level after treatment was determined for both agents (R-alpha-methylhistamine, thioperamide) in hypothalamus.; type: functional
# [32] = species: Rattus norvegicus; experiment: Histamine level after treatment was determined for both agents (R-alpha-methylhistamine, thioperamide) in lung.; type: functional
# [33] = species: Rattus norvegicus; experiment: Histamine level after treatment was determined for both agents (R-alpha-methylhistamine, thioperamide) in spleen; type: functional
# [34] = biological target: T1, Histamine H3 receptor; experiment: Evaluated for antagonistic activity at histamine H3 receptor in rat cerebral cortex and is represented as Ki; type: functional, tissue-based
# [35] = biological target: Histamine H2 receptor (Cavia porcellus) (UniProt P47747); conditions: Cardiac atrium
# [36] = biological target: Histamine H1 receptor (Cavia porcellus) (UniProt P31389); conditions: Ileum
# T1 sequence (Q9QYN8 whole entry): as the sequence (Q9QYN8 whole entry) above
structure (smiles),measurement,setting,value
O=C(CCC(c1ccccc1)c1ccccc1)NCCc1c[nH]cn1,Ki,[1],1000 nM
COc1ccc(CN(CCN(C)C)c2ccccn2)cc1,KB,[2],440 pM
same,KB,[3],> 58 nM
O=C(CCCC1CCCCC1)NCCc1cnc[nH]1,Ki,[1],50.1 nM
CNCCc1cnc[nH]1,Activity,[4],74
same,Activity,[5],72
same,pD2,[6],8.7
same,Ratio_EC50,[7],270
CNC(=S)NCCSCc1[nH]cnc1C,KB,[8],920 nM
same,KB,[9],2.5 µM
O=C(CCCc1cnc[nH]1)NCCc1cnc[nH]1,Ki,[1],1000 nM
CN(C)CC[C@H](c1ccc(Cl)cc1)c1ccccn1,KB,[9],> 0.058 µM
Cc1[nH]cnc1CSCCNC(=N)NCCCc1c[nH]cn1 [IMPROMIDINE],H2 activity,[10],1
same,Activity,[11],< 0.001
same,HA release,[12],38.4
same,HA release,[13],39.5
same,HA release,[14],25.5
same,HA release,[15],25.9
same,HA release,[16],25.3
same,HA release,[17],14.3
same,HA release,[18],35.1
same,HA release,[19],35.5
same,HA release,[20],31.2
same,intrinsic activity,[21],1
Cn1cnc(CCN)c1 [N-METHYLHISTAMINE],Activity,[4],< 0.1
same,Activity,[5],< 0.01
same,Ratio_EC50,[7],<4
O=C(CCCc1ccccn1)NCCc1c[nH]cn1,Ki,[22],1000 nM
O=C(CCc1ccccc1)NCCc1cnc[nH]1,Ki,[22],631 nM
S=C(NC1CCCCC1)N1CCC(c2cnc[nH]2)CC1 [THIOPERAMIDE],Histamine level,[23],75
same,Histamine level,[24],234
same,Histamine level,[25],80
same,Histamine level,[26],245
same,Histamine level,[27],123
C[C@@H](N)Cc1c[nH]cn1.S=C(NC1CCCCC1)N1CCC(c2c[nH]cn2)CC1,Histamine level,[28],75
same,Histamine level,[29],73
same,Histamine level,[30],196
same,Histamine level,[31],205
same,Histamine level,[32],143
same,Histamine level,[33],96
O=C(Cc1ccccc1)NCCc1c[nH]cn1,Ki,[22],1000 nM
Cc1nc[nH]c1CSCCNC(N)=N[C@@H](C)Cc1cnc[nH]1,Ki,[34],40 nM
NCCc1c[nH]cn1 [HISTAMINE],Activity,[4],100
same,Activity,[5],100
same,Ratio_EC50,[7],100
same,pD2,[35],5.95
same,Potency,[36],100
C/N=C(/NC#N)NCCSCc1csc(NC(=N)N)n1,KB,[8],15 nM
same,KB,[9],> 12 µM
